Source: patent publication US20080105961A1, “Ligands of the Molecule Fit (Agt-121) and their Pharmaceutical Use” (priority 2004, published 2008)
Marks after values point to notes of the source that are not given here.

What was measured:
[1] = test system: FIT mRNA; test: ICV infusion of FIT antisense ODN in Psammomys obesus: food intake and body weight; type: in vivo
Description: To further investigate the orexigenic properties of FIT intracerebroventricular (ICV) antisense suppression of FIT was performed. This involved the infusion of FIT antisense oligonucleotides (ODNs) directly into the lateral ventricle space of the brain to suppress endogenous FIT mRNA levels. The effects of this treatment on food intake and body weight were measured and compared to control animals infused with a jumbled sequence ODN, or saline alone. 18 week old, male, lean, normal glucose tolerant (nGT) P. obesus animals were utilised for this study and infused with either saline, FIT antisense ODN, or jumbled ODN at 24 μg/day for four days. The sequence of the FIT antisense ODN was 5′-mu*mg*mg*mc*ma*g*a*a*t*t*g*c*a*mu*mu*mc*mc*mu*-3′, and the jumbled ODN 5′-mc*mg*mc*ma*mc*t*t*a*g*c*t*a*c*mu*mu*mg*mc*mu-3′, where m indicates the presence of a 2′O-Methyl-modified base, and * indicates a phosphorothioate linkage.

[2] = test system: melanocortin receptor; test: Feeding response to ICV injection of SHU9119 after three days of ODN or saline infusion; type: in vivo, Sprague Dawley rats; details: mean ± SEM
From the text: To further analyse the link between FIT and the melanocortin system, the feeding response of Sprague Dawley rats to an ICV injection of SHU9119, a melanocortin receptor antagonist and known feeding stimulator was investigated. After three days of FIT antisense treatment, jumbled oligonucleotide or saline infusion, responses were compared to rats receiving an ICV injection of saline vehicle rather than SHU9119.

[3] = target: T1, MC4R (Rattus norvegicus, UniProt P70596); test: Feeding response to MT II after ODN or saline infusion; type: in vivo, Sprague Dawley rats; details: mean ± SEM
T1 construct: from tissue; host or cells: living Sprague Dawley rats (brain)
Description: To further investigate this relationship, antisense suppression of FIT in Sprague Dawley rats was again performed and these animals' responses to administration of the α-MSH analog MT II, a synthetic agonist of the MC4R and known suppressor of feeding. MT II effects on food intake and body weight in saline and jumbled ODN-treated control rats, as well as in FIT antisense-treated rats was measured.

[4] = test system: FIT mRNA; test: Metabolic heat production by indirect calorimetry (FIG. 1); type: in vivo, Sprague Dawley rats; details: pair fed, last half of dark phase and majority of light phase
From the text: FIG. 1 is a graphical representation of metabolic heat production in Sprague Dawley rats after three days of FIT antisense-treatment compared to jumbled ad libitum fed and jumbled pair fed rats. *p<0.05 pair fed compared to jumbled group, #p<0.05 pair fed compared to FIT antisense-treated group, ̂p<0.05 compared to both jumbled and FIT antisense-treated groups. Data are mean ±SEM.
To further dissect the nature of the inability to reduce TEE levels after FIT antisense treatment, metabolic heat production was measured by indirect calorimetry.

[5] = test system: FIT mRNA; test: ICV infusion of FIT antisense ODN in Sprague Dawley rats: food intake and body weight; type: in vivo
Description: To confirm the appetite-suppressing and weight-reducing effects of central FIT suppression in an animal model other than P. obesus, the inventors performed the same experiments in Sprague Dawley rats. Male, 12 week old Sprague Dawley rats were infused with either saline, FIT antisense ODN, or jumbled ODN at 24 μg/day for four days. The sequence of the FIT antisense ODN and the jumbled ODN are the same as in Example 2 above.

[6] = test system: FIT mRNA; test: Hypothalamic FIT gene expression by semi-quantitative RT-PCR in ICV antisense-treated rats; type: in vivo, Sprague Dawley rats; details: hypothalamus, ICV-treated Sprague Dawley rats, mean ± SEM
Description: To confirm endogenous suppression of FIT in antisense-treated Sprague Dawley rats, FIT mRNA in the hypothalamus of these animals was measured.

[7] = test system: FIT mRNA; test: Pair-feeding study with indirect calorimetry (24 h): body weight, food intake, total energy expenditure; type: in vivo, Sprague Dawley rats; details: mean ± SEM; for Day 0 BW: baseline
Description: To investigate the mechanism of weight loss after FIT antisense treatment, a group of Sprague Dawley rats were pair fed to the average daily food intake levels of FIT antisense-treated rats, and indirect calorimetry (24 h) was performed before and after FIT antisense or jumbled ODN ICV infusion.
Total energy expenditure (TEE) was calculated from measurements of oxygen consumption and carbon dioxide production using indirect calorimetry (Ferrannini, 1988). Due to differences in body weight between the three groups of rats, TEE levels were calculated relative to whole body mass of the animals. […] FIT antisense-treated rats therefore have an inappropriately high level of energy expenditure for their body weight.

[8] = ICV 24 μg/day, day 1, mean ± SEM
[9] = ICV 24 μg/day, day 2, mean ± SEM
[10] = ICV 24 μg/day, day 3, mean ± SEM
[11] = ICV 24 μg/day, day 4, mean ± SEM
[12] = baseline body weight, mean ± SEM
[13] = change compared to day 0, mean ± SEM
[14] = not pair fed (jumbled group ad libitum fed)
[15] = pair fed to food intake of FIT antisense-treated rats

T1 sequence (P70596 whole entry, the tested form may be a part): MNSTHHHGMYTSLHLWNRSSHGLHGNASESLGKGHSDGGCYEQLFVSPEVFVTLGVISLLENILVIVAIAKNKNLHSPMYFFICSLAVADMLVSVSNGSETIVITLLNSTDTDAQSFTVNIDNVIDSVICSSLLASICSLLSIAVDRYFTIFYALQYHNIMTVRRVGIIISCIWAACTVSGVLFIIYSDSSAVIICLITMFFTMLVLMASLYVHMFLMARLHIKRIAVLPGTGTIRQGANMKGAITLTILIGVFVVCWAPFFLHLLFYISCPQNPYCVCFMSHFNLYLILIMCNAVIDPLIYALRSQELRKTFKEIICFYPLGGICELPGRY

5′-mc*mg*mc*ma*mc*t*t*a*g*c*t*a*c*mu*mu*mg*mc*mu-3′ [Jumbled, reference compound]
Cumulative food intake, Day 1 Food [1, 8]: 8.9 ± 0.5^a g
Cumulative food intake, Day 2 Food [1, 9]: 17.3 ± 1.0^a g
Cumulative food intake, Day 3 Food [1, 10]: 27.3 ± 1.5^a g
Cumulative food intake, Day 4 Food [1, 11]: 38.7 ± 2.7 g
Day 1 BW ([1]; ICV 24 μg/day, mean ± SEM): 188 ± 9 g
Day 2 BW ([1]; ICV 24 μg/day, mean ± SEM): 188 ± 9 g
Day 3 BW ([1]; ICV 24 μg/day, mean ± SEM): 187 ± 9 g
Day 4 BW ([1]; ICV 24 μg/day, mean ± SEM): 187 ± 9 g
Day 0 BW [1, 12]: 191 ± 9 g
Day 1 ΔBW [1, 13]: -3.8 ± 0.7 g
Day 2 ΔBW [1, 13]: -3.3 ± 0.8 g
Day 3 ΔBW [1, 13]: -4.0 ± 1.6 g
Day 4 ΔBW [1, 13]: -3.5 ± 1.7 g
Δ FI ([2]; 48 hr food intake post minus pre injection): 0.03 ± 0.02 g/g BW
48 hr FI post injection ([2]; food intake relative to body weight, after ICV SHU9119 or vehicle injection): 0.13 ± 0.01 g/g BW
48 hr FI pre injection ([2]; food intake relative to body weight, during ICV infusion, before SHU9119 or vehicle injection): 0.10 ± 0.01 g/g BW
Δ FI ([3]; 24 hr food intake post minus pre injection): −0.02 ± 0.01 g/g BW
24 hr FI post injection ([3]; food intake after MT II or vehicle injection): 0.04 ± 0.01 g/g BW
24 hr FI pre injection ([3]; food intake, during ICV infusion, before MT II or vehicle injection): 0.06 ± 0.01 g/g BW
metabolic heat production compared to jumbled-treated ad libitum fed and FIT antisense-treated rats [4]: significantly reduced heat production
Cumulative food intake, Day 1 Food [5, 8]: 18.7 ± 2.4 g
Cumulative food intake, Day 2 Food [5, 9]: 44.7 ± 4.1 g
Cumulative food intake, Day 3 Food [5, 10]: 72.6 ± 5.1 g
Cumulative food intake, Day 4 Food [5, 11]: 101.5 ± 6.1 g
Day 1 BW ([5]; ICV 24 μg/day, mean ± SEM): 457 ± 24 g
Day 2 BW ([5]; ICV 24 μg/day, mean ± SEM): 468 ± 23 g
Day 3 BW ([5]; ICV 24 μg/day, mean ± SEM): 473 ± 23 g
Day 4 BW ([5]; ICV 24 μg/day, mean ± SEM): 477 ± 22 g
Day 0 BW [5, 12]: 465 ± 24 g
Day 1 ΔBW [5, 13]: -7.8 ± 3.6 g
Day 2 ΔBW [5, 13]: 3.5 ± 3.7 g
Day 3 ΔBW [5, 13]: 6.3 ± 3.5 g
Day 4 ΔBW [5, 13]: 12.0 ± 4.1 g
FIT gene expression [6]: 8.4 ± 0.6 arbitrary units
Day 0 BW [7, 14]: 404 ± 31 g
Day 4 BW [7, 14]: 386 ± 24 g
Food Intake [7, 14]: 81.1 ± 10.3 g
Δ BW [7, 14]: -17.3 ± 8.9 g
Δ TEE ([7]; not pair fed): -21 ± 17 kJ/day/kg
Post TEE ([7]; not pair fed, total energy expenditure after ICV infusion): 492 ± 61 kJ/day/kg
Pre TEE ([7]; not pair fed, total energy expenditure before ICV infusion): 513 ± 62 kJ/day/kg
Day 0 BW [7, 15]: 357 ± 9 g
Day 4 BW [7, 15]: 317 ± 7^a g
Food Intake [7, 15]: 39.1 ± 3.2^a g
Δ BW [7, 15]: -39.7 ± 9.9 g
Post TEE ([7]; pair fed, after ICV infusion): 456 ± 30^c kJ/day/kg
Pre TEE ([7]; pair fed, before ICV infusion): 556 ± 59 kJ/day/kg
Δ TEE ([7]; pair fed): -100 ± 28 kJ/day/kg
